Where a chain is given by its changes, count along the chain named. Entries after “also recorded” stand apart in the source; their conditions may differ.
Key:
RYBP = assay: Western blot of RYBP expression in retrovirally infected BMMs; type: cell-based, mouse; settings: BMMs infected with retrovirus expressing siRNA; anti-RYBP Western blot
Description: Western blot analysis was performed as previously described (Xu et al., 2006; Liu et al., 2004). RAW264.7 cells cultured in DMEM containing 10% HI-FBS and penicillin/streptomycin were treated with RANKL (100 ng/ml) for various times before being lysed for Western blot analysis with anti-RYBP antibody from Abcam Inc (Cambridge, Mass.). Primary BMMs were normally cultured in α-MEM containing 10% HI-FBS and penicillin/streptomycin in the presence of M-CSF (44 ng/ml). Uninfected BMMs or BMMs infected with retrovirus encoding siRNA and/or tagged-RYBP were cultured in the presence of M-CSF (44 ng/ml) with or without RANKL (100 ng/ml) for various times and then lysed for Western blot analysis. For Western blot analysis of IP complex, all 35 μl of the eluted proteins from each IP assay was loaded for Western blot analysis with anti-HA antibody (Clontech Laboratories, Inc), anti-Myc antibody (Clontech Laboratories, Inc), anti-RYBP (Abcam Inc) antibody and anti-β-actin antibody (Santa Cruz Biotechnology).
293GPG cells were cultured in DMEM with 10% HI-FBS supplemented with tetracycline, puromycin, G418 and penicillin/streptomycin as previously described {2222). Plat-E cells were cultured in DMEM with 10% HI-FBS supplemented with puromycin, blasticidin and penicillin/streptomycin as previously described {Morita, 2000 3155/id}. […]

primary BMMs = assay: In vitro osteoclastogenesis assay (TRAP staining); type: cell-based, mouse; settings: TRAP stain
Description: Primary BMMs were cultured in 24-well tissue culture plates (5×10^4 cells/well) with a-MEM containing 10% heat-inactivated FBS in the presence of 0.02 volume of culture supernatant of M-CSF-producing cells (final M-CSF concentration 44 ng/ml) (Takeshita et al., 2000) and 100 ng of GST-RANKL (Lam et al., 2000). […]
293GPG cells were cultured in DMEM with 10% HI-FBS supplemented with tetracycline, puromycin, G418 and penicillin/streptomycin as previously described {2222). Plat-E cells were cultured in DMEM with 10% HI-FBS supplemented with puromycin, blasticidin and penicillin/streptomycin as previously described {Morita, 2000 3155/id}. The retroviral vectors were transiently transfected into 293GPG cells or Plat-E cells using Lipofectamine Plus Reagent (Invitrogen). Virus supernatant was collected at 48, 72 and 96 h after transfection. Cells were then infected with virus for 24 hours in the presence of M-CSF (220 ng/ml) and 8 μg/ml polybrene. Cells were further cultured in the presence of M-CSF (220 ng/ml) and 2 μg/ml puromycin for selection and expansion of transduced cells. Selected cells were subsequently used for various studies.
A scrambled siRNA sequence was designed to use as control (FIG. 3A). BMMs were uninfected or infected with retrovirus expressing scrambled RNA or RYBP siRNA. […]

[1] = target: T1, 49-aa RANK segment (residues 498-546) containing the IVVY motif (Mus musculus, UniProt O35305); assay: Two-hybrid screen of osteoclast precursor cDNA library; type: binding; settings: yeast AH109, medium stringency
T1 construct: expressed in transfected cells; host or cells: yeast strain AH109
T1 sequence (O35305 498-546): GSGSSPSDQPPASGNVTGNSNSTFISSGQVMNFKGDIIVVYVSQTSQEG
Description: An osteoclast precursor cDNA library was constructed using CloneMiner™ cDNA Library Construction System from Invitrogen (Carlsbad, Calif.). Briefly, mRNA was isolated from mouse primary BMMs and used as template for cDNA synthesis. Synthesized cDNA was size fractionated by column chromatography and the desired size of cDNA (>500 bp) was pooled and cloned into pDONOR™222 vector with BP Clonase™ to make Osteoclast Precursor cDNA Entry Library. pGBKT7 AD Vector of MATCHMAKER Two-Hybrid System 3 (Invitrogen) was converted to a Gateway® destination vector using Gateway® Vector Conversion System (Invitrogen). The whole set of cDNA clones was then transferred from the Osteoclast Precursor cDNA Entry Library into the modified pGBKT7 AD Vector to prepare an Osteoclast Precursor Two-Hybrid cDNA Library.
A 49-aa RANK segment (residues 498-546) containing the IVVY (SEQ ID NO: 4) motif (residues 535-538) was used as bait in the two-hybrid screening. A mouse cDNA region encoding this 49-aa RANK fragment was cloned in frame into pGBKT7 DNA-BD Vector of the MATCHMAKER Two-Hybrid System 3 (Invitrogen). The resulting plasmid was named as pGBKT7 DNA-BD-RANK. […]

For “RYBP siRNA: retrovirally expressed siRNA targeting the RYBP mRNA region encoding DPPSEA (AGCUUCACUAGGAGGAUCU)”, the RYBP expression (RYBP) was “significantly suppressed RYBP expression; also recorded: dramatically knocked down endogenous RYBP expression” and the osteoclastogenesis (primary BMMs; infected BMMs treated with M-CSF (44 ng/ml) and RANKL (100 ng/ml) for 4 days) was “inhibited osteoclastogenesis”.

B1: RYBP-HA: WT RYBP with HA tag at C-terminus, siRNA target region silently mutated (protein, UniProt Q8N488 1-228, looked up)
RING1 and YY1-binding protein: MTMGDKKSPTRPKRQAKPAADEGFWDCSVCTFRNSAEAFKCSICDVRKGTSTRKPRINSQLVAQQVAQQYATPPPPKKEKKEKVEKQDKEKPEKDKEISPSVTKKNTNKKTKPKSDILKDPPSEANSIQSANATTKTSETNHTSRPRLKNVDRSTAQQLAVTVGNVTVIITDFKEKTRSSSTSSSTVTSSAGSEQQNQSSSGSESTDKGSSRSSTPKGDMSAVNDESF
modifications: C-terminal HA tag
notes: WT RYBP with HA tag at C-terminus, siRNA target region silently mutated
In the case of B1, the rescue of osteoclastogenesis (primary BMMs; BMMs co-infected with RYBP siRNA retrovirus, M-CSF and RANKL 4 days) is reported as “effectively rescued osteoclastogenesis”.

B2: RYBP: RING1A and YY1 binding protein, amino acid sequence SEQ ID NO:2 (protein, listed as Mus sp.)
chain: B1 RING1 and YY1-binding protein with Q87P, E97D
With B2 the “affinity for the bait (time a clone takes to become blue)” value [1] was “highest affinity for the bait”.
